From US11470846B2, “Herbicidal pyridino-/pyrimidino-thiazoles” (SYNGENTA PARTICIPATIONS AG, priority 2014, dated 2022)

Assays:
Type in all cases: in vivo
[1] = test system: Alopecurus myosuroides (ALOMY); assay: Pre-emergence herbicidal activity; settings: pre-emergence application, 1000 g/Ha, evaluated after 13 days, scale 0-5
Protocol: (§1) B1 Pre-Emergence Herbicidal Activity
(§2) Seeds of a variety of test species were sown in standard soil in pots: Triticum aestivium (TRZAW), Oryza sativa (ORYSA), Avena fatua (AVEFA), Alopecurus myosuroides (ALOMY), Echinochloa crus-galli (ECHCG), Lolium perenne (LOLPE), Zea Mays (ZEAMX), Abutilon theophrasti (ABUTH), Amaranthus retroflexus (AMARE) and Setaria faberi (SETFA). After cultivation for one day (pre-emergence) under controlled conditions in a glasshouse (at 24/16° C., day/night; 14 hours light; 65% humidity), the plants were sprayed with an aqueous spray solution derived from the formulation of the technical active ingredient in acetone/water (50:50) solution containing 0.5% Tween 20 (polyoxyethelyene sorbitan monolaurate, CAS RN 9005-64-5). The test plants were then grown in a glasshouse under controlled conditions (at 24/16° C., day/night; 14 hours light; 65% humidity) and watered twice daily. After 13 days, the test was evaluated (5=total damage to plant; 0=no damage to plant).

Lolium perenne (LOLPE) [2] = assay: Pre-emergence herbicidal activity; settings: pre-emergence application, 1000 g/Ha, evaluated after 13 days, scale 0-5; Table 5
Protocol: as §1, §2

Oryza sativa (ORYSA) [3] = assay: Pre-emergence herbicidal activity; settings: pre-emergence application, 1000 g/Ha, evaluated after 13 days, scale 0-5
Protocol: as §1, §2

Avena fatua (AVEFA) [4] = assay: Pre-emergence herbicidal activity; settings: pre-emergence application, 1000 g/Ha, evaluated after 13 days, scale 0-5
Protocol: as §1, §2

[5] = test system: Triticum aestivium (TRZAW); assay: Pre-emergence herbicidal activity; settings: pre-emergence application, 1000 g/Ha, evaluated after 13 days, scale 0-5
Protocol: as §1, §2

[6] = test system: Echinochloa crus-galli (ECHCG); assay: Pre-emergence herbicidal activity; settings: pre-emergence application, 1000 g/Ha, evaluated after 13 days, scale 0-5; Table 5
Protocol: as §1, §2

[7] = test system: Alopecurus myosuroides (ALOMY); assay: Post-emergence herbicidal activity; settings: post-emergence application, 1000 g/Ha, evaluated after 13 days, scale 0-5
Protocol: (§3) B2 Post-Emergence Herbicidal Activity
(§4) Seeds of a variety of test species were sown in standard soil in pots: Triticum aestivium (TRZAW), Oryza sativa (ORYSA), Avena fatua (AVEFA), Alopecurus myosuroides (ALOMY), Echinochloa crus-galli (ECHCG), Lolium perenne (LOLPE), Zea Mays (ZEAMX), Abutilon theophrasti (ABUTH), Amaranthus retroflexus (AMARE) and Setaria faberi (SETFA). After 8 days cultivation (post-emergence) under controlled conditions in a glasshouse (at 24/16° C., day/night; 14 hours light; 65% humidity), the plants were sprayed with an aqueous spray solution derived from the formulation of the technical active ingredient in acetone/water (50:50) solution containing 0.5% Tween 20 (polyoxyethelyene sorbitan monolaurate, CAS RN 9005-64-5). The test plants were then grown in a glasshouse under controlled conditions (at 24/16° C., day/night; 14 hours light; 65% humidity) and watered twice daily. After 13 days, the test was evaluated (5=total damage to plant; 0=no damage to plant).

Lolium perenne (LOLPE) [8] = assay: Post-emergence herbicidal activity; settings: post-emergence application, 1000 g/Ha, evaluated after 13 days, scale 0-5; Table 7
Protocol: as §3, §4

Oryza sativa (ORYSA) [9] = assay: Post-emergence herbicidal activity; settings: post-emergence application, 1000 g/Ha, evaluated after 13 days, scale 0-5
Protocol: as §3, §4

Avena fatua (AVEFA) [10] = assay: Post-emergence herbicidal activity; settings: post-emergence application, 1000 g/Ha, evaluated after 13 days, scale 0-5
Protocol: as §3, §4

[11] = test system: Triticum aestivium (TRZAW); assay: Post-emergence herbicidal activity; settings: post-emergence application, 1000 g/Ha, evaluated after 13 days, scale 0-5
Protocol: as §3, §4

[12] = test system: Echinochloa crus-galli (ECHCG); assay: Post-emergence herbicidal activity; settings: post-emergence application, 1000 g/Ha, evaluated after 13 days, scale 0-5; Table 7
Protocol: as §3, §4

| Structure (SMILES) | Control of weed species, ALOMY (damage score) [1] | Control of weed species, LOLPE (damage score) (Lolium perenne (LOLPE) [2]) | Control of weed species, ORYSA (damage score) (Oryza sativa (ORYSA) [3]) | Control of weed species, AVEFA (damage score) (Avena fatua (AVEFA) [4]) | Control of weed species, TRZAW (damage score) [5] | Control of weed species, ECHCG (damage score) [6] | Control of weed species, ALOMY (damage score) [7] | Control of weed species, LOLPE (damage score) (Lolium perenne (LOLPE) [8]) | Control of weed species, ORYSA (damage score) (Oryza sativa (ORYSA) [9]) | Control of weed species, AVEFA (damage score) (Avena fatua (AVEFA) [10]) | Control of weed species, TRZAW (damage score) [11] | Control of weed species, ECHCG (damage score) [12] |
| --- | --- | --- | --- | --- | --- | --- | --- | --- | --- | --- | --- | --- |
| Cc1nc(-c2cncc(O)c2)sc1N(C)C(=O)OC(C)(C)C [Compound A15] | 0 | 0 | 0 | 0 | 0 | 0 | 0 | 1 | 0 | 2 | 1 | 1 |
| Cc1nc(-c2cccnc2)sc1N(C)C(=O)NC(C)(C)C [Compound A21, 3-tert-butyl-1-methyl-1-[4-methyl-2-(3-pyridyl)thiazol-5-yl]urea] | 0 | 1 | 0 | 2 | 0 | 5 | 2 | 3 | 0 | 4 | 1 | 5 |
| CN(C(=O)OC(C)(C)C)c1sc(-c2cccnc2)nc1F [Compound A32, tert-butyl N-[4-fluoro-2-(3-pyridyl)thiazol-5-yl]-N-methyl-carbamate] | 0 | 1 | 2 | 1 | 0 | 2 | 1 | 2 | 1 | 3 | 0 | 3 |
| Cc1nc(-c2cncc(F)c2)sc1N(C)C(=O)OC(C)(C)C [Compound A3, tert-butyl N-[2-(5-fluoro-3-pyridyl)-4-methyl-thiazol-5-yl]-N-methyl-carbamate] | 1 | 2 | 1 | 3 | 1 | 4 | 1 | 3 | 1 | 4 | 1 | 5 |
| Cc1nc(-c2cncc(C(F)(F)F)c2)sc1N(C)C(=O)OC(C)(C)C [Compound A10] | 0 | 1 | 1 | 1 | 1 | 1 | 0 | 0 | 1 | 2 | 1 | 4 |
| CCN(C(=O)OC(C)(C)C)c1sc(-c2cccnc2)nc1C [Compound A17] | 0 | 0 | 0 | 0 | 0 | 0 | 1 | 2 | 2 | 4 | 1 | 1 |
| CN(C(=O)OC(C)(C)C)c1sc(-c2cccnc2)nc1I [Compound A31, tert-butyl N-[4-iodo-2-(3-pyridyl)thiazol-5-yl]-N-methyl-carbamate] | 1 | 2 | 1 | 1 | 1 | 3 | 1 | 3 | 1 | 5 | 1 | 4 |
| Cc1nc(-c2cncc(F)c2)sc1N1CCOC1=O [Compound A38, 3-[2-(5-fluoro-3-pyridyl)-4-methyl-thiazol-5-yl]oxazolidin-2-one] | 1 | 2 | 3 | 1 | 0 | 5 | 1 | 3 | 0 | 4 | 1 | 5 |
| COc1cncc(-c2nc(C(F)(F)F)c(N(C)C(=O)OC(C)(C)C)s2)c1 [Compound A28, tert-butyl N-[2-(5-methoxy-3-pyridyl)-4-(trifluoromethyl)thiazol-5-yl]-N-methyl-carbamate] | 0 | 2 | 0 | 1 | 0 | 3 | 1 | 3 | 1 | 2 | 1 | 4 |
| Cc1nc(-c2cccnc2)sc1N(C)C(=O)OC(C)C [Compound A20] | 0 | 2 | 0 | 2 | 0 | 5 | 1 | 3 | 0 | 3 | 1 | 5 |
| CN(C(=O)OC(C)(C)C)c1sc(-c2cncc(F)c2)nc1C(F)(F)F [Compound A24] | 2 | 3 | 0 | 4 | 1 | 4 | 0 | 4 | 2 | 4 | 1 | 5 |
| CSc1cncc(-c2nc(C)c(N(C)C(=O)OC(C)(C)C)s2)c1 [Compound A12] | 0 | 1 | 0 | 3 | 0 | 3 | 0 | 3 | 1 | 2 | 2 | 4 |
